Structures can show the parent of a compound that is named as a salt.
What was measured:
[1] = Pharmacokinetics in CD-1 mice after i.v. injection; format: in vivo, mouse; conditions: female CD-1 mice, 2 nmol i.v. bolus in PBS, n = 3 mice per time point, HPLC of plasma; data not shown
Experimental: Twenty-four female retired breeder CD-1 mice (age 12–16 weeks, Charles River Laboratories, Wilmington, MA) received a bolus intravenous (i.v.) injection of NE680 (2 nmol in PBS). Terminal blood samples (n = 3 mice per time point) were collected by cardiac puncture from each mouse (following carbon dioxide asphyxiation). Plasma was collected by centrifugation (15,000 rpm for 10 min at 4°C) in EDTA-containing tubes. Aliquots (50 μL) of each plasma sample were placed in Eppendorf tubes. Cold methanol (150 μL) was added and the tubes were vortexed followed by centrifugation at 12,000 rpm and 4°C for 10 minutes. Approximately 110 μL of the supernatants were transferred to HPLC vials for analysis. Studies were conducted in accordance with and approved by PerkinElmer's IACUC Institutional Animal Care and Use Committee guidelines.
HPLC analyses were performed on a Waters model 2695 (Waters Corporation, Milford, MA). The PDA, Waters model 2998, was set to scan from 225 nm to 800 nm. The wavelength corresponding to the absorbance maximum of the fluorophore, 675 nm, was extracted from the PDA trace. The fluorescence spectrophotometer was set to an excitation wavelength of 675 nm and emission was monitored at 693 nm. Samples were analyzed on a C4, 300 Å, 5 μm, 150 × 4.6 mm HPLC column (Phenomenex, Torrance, CA). The aqueous mobile phase contained 25 mM ammonium formate, pH 8.5. […]

mouse NE = experiment: In vitro activation and protease selectivity of NE680 (mouse NE versus related enzymes); format: biochemical; conditions: at 5 h, 0.5 μM NE680, 0.05 μM enzyme, room temperature, optimized buffer for each enzyme
Experimental: Activation and protease selectivity of NE680 were determined with NE and closely related enzymes including PR3, Cat G, Cat B, and MMP-9. The assays were performed with 0.05 μM of enzyme and 0.5 μM NE680 in the optimized buffer and pH for each enzyme. Human NE was purchased from Innovative Research (Novi, MI), recombinant mouse NE, mouse Cat B, and active mouse Cat C from R and D Systems (Minneapolis, MN), human neutrophil PR3 from Athens Research and Technology (Athens, GA), and human neutrophil Cat G and recombinant human MMP-9 from BIOMOL International (Plymouth Meeting, PA). The reaction buffers were as follows: for human NE, 100 mM Tris (pH 7.5); for mouse NE, 50 mM Tris (pH 7.5), 1 M NaCl, 0.05% Brij-35; for Cat B, 25 mM MES (pH 5.0), 0.5 mM DTT (preactivation in 25 mM MES pH 5.0, 5 mM DTT for 15 min at room temperature); for MMP-9, 50 mM Tris (pH 7.5), 10 mM CaCl2, 150 mM NaCl, 0.05% Brij 35; for Cat G, 100 mM Tris (pH 7.5), 1.6 M NaCl; for human PR3, 100 mM Tris (pH 7.5), 500 mM NaCl. Mouse NE was activated by active mouse Cat C in 50 mM MES, 50 mM NaCl, pH5.5 at 37°C for 2 h. Reactions were carried out at room temperature in 250 μL in 96 well plates with black sides and bottom. All the reactions were monitored at various time points at excitation/emission wavelengths of 663/690 nm with a cutoff at 665 nm using a fluorescence plate reader (Molecular Devices, San Leandro, CA). The released fluorescence is shown after subtracting background fluorescence of the agent without enzyme.

NE [2] = target: T1, NE (Mus musculus, UniProt Q3UP87); experiment: NE680 activation ex vivo in lung sections; conditions: 1 μM NE680, 37°C, 5 h
T1 construct: from tissue; host or cells: lung of LPS/fMLP-challenged CD-1 mice (frozen sections or in vivo)
T1 sequence (Q3UP87 27-265): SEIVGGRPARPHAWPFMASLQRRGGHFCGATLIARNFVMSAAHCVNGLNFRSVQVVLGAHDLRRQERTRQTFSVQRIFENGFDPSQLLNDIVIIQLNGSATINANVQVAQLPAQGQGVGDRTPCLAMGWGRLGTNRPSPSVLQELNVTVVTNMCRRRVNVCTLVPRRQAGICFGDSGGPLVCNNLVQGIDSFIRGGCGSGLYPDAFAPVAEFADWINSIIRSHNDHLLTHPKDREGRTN
Source text: To validate the specificity of NE680 activation by NE present in lungs, mice with lung inflammation and control healthy mice (which had not received NE680) were euthanized by CO2 inhalation and lungs were removed and snap frozen in OCT. […] Fluorescence, as a measure of agent activation, was captured under fluorescence microscopy using appropriate filters (Zeiss Axioskop 2 MOT Plus). DAPI was used as a nuclear counterstain.

Mouse plasma stability = format: in vitro ADME; conditions: normal mouse plasma diluted 1:4 in PBS pH 7.40 with 1 mM EDTA, 37°C, 24 h; HPLC; data not shown
Experimental: The agent was incubated in normal mouse plasma (Innovative Research, Novi, MI) diluted 1 : 4 in PBS, pH 7.40 with 1 mM EDTA, at 37°C for 24 h. The stability of the agent was analyzed by HPLC.
HPLC analyses were performed on a Waters model 2695 (Waters Corporation, Milford, MA). The PDA, Waters model 2998, was set to scan from 225 nm to 800 nm. The wavelength corresponding to the absorbance maximum of the fluorophore, 675 nm, was extracted from the PDA trace. The fluorescence spectrophotometer was set to an excitation wavelength of 675 nm and emission was monitored at 693 nm. Samples were analyzed on a C4, 300 Å, 5 μm, 150 × 4.6 mm HPLC column (Phenomenex, Torrance, CA). The aqueous mobile phase contained 25 mM ammonium formate, pH 8.5. Samples were eluted with acetonitrile at a flow rate of 1 mL/min. A gradient of 15% to 85% organic provided sufficient resolution. Standards were prepared with NE680 (0–2.5 μM) in mouse plasma. Standard curves had correlation coefficients >0.98.

NE [3] = target: T1, NE; experiment: In vivo FMT imaging of NE680 activation in LPS/fMLP acute lung injury
Source text: Acute lung inflammation was induced in mice according to published protocols with slight modifications. Male CD-1 mice were purchased from Charles River Laboratories (Wilmington, MA) and used when they reached 8–10 weeks of age. Mice were housed in environmentally controlled specific-pathogen-free conditions with water and low-fluorescence mouse chow (Harlan Teklad, Madison, WI). All animal experimental procedures were approved by PerkinElmer's Institutional Animal Care and Use Committee and were in accordance with veterinarian requirements. On day 1, mice were challenged intranasally (i.n.) with 100 μg of LPS (E. coli 111 : B4, Sigma, St. Louis, MO) solubilized in 40 μL PBS or PBS only. Eighteen hours later, mice received an intranasal instillation of the chemotactic peptide N-formyl-met-leu-phe (fMLP, Sigma, St. Louis, MO) at 200 nM in 40 μL PBS together with 4 nmoles of NE680.
For in vivo imaging, mice were first depilated using Nair and placed in a fluorescence molecular tomography (FMT) 2500 system (PerkinElmer, Boston, MA) imaging chamber to which is delivered a controlled amount of isoflurane/oxygen mixture keeping the mice anesthetized. Three-dimensional regions of interest (ROIs) were drawn around the chest area applying a universal threshold, equal to 40% of the mean concentration value of fluorescence in the LPS/fMLP mice (in nM). The total amount (in picomole) of fluorochrome was automatically calculated relative to internal standards generated with known concentrations of the appropriate fluorochrome. For each study, the mean fluorescence of the LPS/fMLP group was equaled to 100%, and then each mouse in that study was normalized accordingly. Shown are the grouped results of 3 studies, as the percentage of LPS/fMLP Lung Fluorescence (means ± S.E.M.).

[4] = Fluorescence biodistribution in excised organs; format: in vivo, mouse; conditions: organs excised from 3 LPS/fMLP mice immediately after imaging, reflectance mode, mean fluorescence counts/energy
Experimental: Immediately following imaging, a cohort of mice were sacrificed (n = 3 per group), organs excised, and imaged in reflectance mode using the FMT 2500. The mean fluorescence intensity was measured after drawing an ROI around each organ. Data are expressed as mean fluorescence (in counts/energy) reported as means ± S.E.M.

neutrophil influx = experiment: Lung histology (H and E) after in vivo imaging, neutrophil influx; design: species or system mouse; conditions: single treatment 5 mg/kg i.n. 18 h after LPS; H and E sections
human PR3 = target: T2, human PR3 (Homo sapiens, UniProt P24158); experiment: Inhibition of NE680 cleavage by human PR3; format: biochemical; conditions: NE680 0.5 μM as substrate; 30 min preincubation of enzyme with inhibitor, room temperature; read-out: IC50 on NE680 activation by human PR3
T2 construct: human neutrophil PR3 from Athens Research and Technology (Athens, GA); purchased Athens Research and Technology (Athens, GA); host or cells: human neutrophils
T2 sequence (P24158 28-256): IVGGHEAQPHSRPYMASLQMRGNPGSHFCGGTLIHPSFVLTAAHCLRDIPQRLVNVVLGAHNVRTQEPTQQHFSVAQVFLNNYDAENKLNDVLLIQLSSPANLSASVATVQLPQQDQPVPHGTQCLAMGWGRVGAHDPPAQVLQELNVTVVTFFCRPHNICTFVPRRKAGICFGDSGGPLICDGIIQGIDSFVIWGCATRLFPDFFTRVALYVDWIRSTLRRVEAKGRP
Experimental: Activation and protease selectivity of NE680 were determined with NE and closely related enzymes including PR3, Cat G, Cat B, and MMP-9. The assays were performed with 0.05 μM of enzyme and 0.5 μM NE680 in the optimized buffer and pH for each enzyme. Human NE was purchased from Innovative Research (Novi, MI), recombinant mouse NE, mouse Cat B, and active mouse Cat C from R and D Systems (Minneapolis, MN), human neutrophil PR3 from Athens Research and Technology (Athens, GA), and human neutrophil Cat G and recombinant human MMP-9 from BIOMOL International (Plymouth Meeting, PA). […] All the reactions were monitored at various time points at excitation/emission wavelengths of 663/690 nm with a cutoff at 665 nm using a fluorescence plate reader (Molecular Devices, San Leandro, CA). The released fluorescence is shown after subtracting background fluorescence of the agent without enzyme.
The IC50 against human NE and human PR3 were determined as described above using NE680 (0.5 μM). […]

[5] = 10 μm frozen sections, fluorescence microscopy

| cleavage by mouse NE relative to Cat G (mouse NE; human Cat G) [fold] | cleavage by mouse NE relative to MMP-9 (mouse NE; human MMP-9) [fold] | cleavage by mouse NE relative to Cat B (mouse NE; mouse Cat B) | fluorescence (agent activation) in lung sections from control mice (NE [2]; [5]) | fluorescence (agent activation) in lung sections from mice with ALI (NE [2]; [5]) | IC50 (human PR3) [nM] | suppression of NE680 activation in ALI lung sections (NE [2]; sivelestat 40 nM) | suppression of NE680 activation in ALI lung sections (NE [2]; sivelestat 0.4 and 4 μM) | Compound | half-life in plasma (t 1/2) [1] [h] | stability in mouse plasma (Mouse plasma stability) | average total fluorescence per lung (NE [3]; LPS/fMLP mice) | magnitude of signal in positive control animals across studies (NE [3]; LPS/fMLP mice, range between studies) | average total fluorescence per lung (NE [3]; control mice) [pmol fluorescence/lung] | median concentration of lung fluorescence (NE [3]; healthy controls, n = 12, 4 nmoles NE680 i.n., FMT 5 h later) [nM] | median concentration of lung fluorescence (NE [3]; mice with LPS/fMLP ALI, n = 16, 4 nmoles NE680 i.n., FMT 5 h later) [nM] | NE680 signal in lungs relative to all other tissues [4] | effect on neutrophil influx into the lung (neutrophil influx) | median concentration of lung fluorescence (NE [3]; ALI mice treated with sivelestat 5 mg/kg i.n. 15 min before fMLP and NE680, n = 12) [nM] | lung fluorescence as percentage of LPS/fMLP group (NE [3]; ALI mice treated with sivelestat 5 mg/kg i.n. 15 min before fMLP and NE680, mean ± S.E.M., n = 12, P = 0.0144) [%] |
| --- | --- | --- | --- | --- | --- | --- | --- | --- | --- | --- | --- | --- | --- | --- | --- | --- | --- | --- | --- |
| > 10 | > 30 | over 250 fold | little or no apparent fluorescence | strong fluorescence |  |  |  | PMAVVQSVP [NE680] | 3 | optically stable and remains quenched | ~ 100 pmol fluorescence/lung | 30–190 pmols fluorescence/lung | < 5 | 0 | 164 | 30- to 170 fold |  |  |  |
|  |  |  |  |  | 700 | significantly inhibited | almost completely blocking | CC(C)(C)C(=O)Oc1ccc(S(=O)(=O)Nc2ccccc2C(=O)NCC(=O)O)cc1 [sivelestat, N-{2-[({4-[(2,2-dimethylpropanoyl)oxy]phenyl}sulfonyl)amino]benzoyl} glycine sodium salt, reference compound] |  |  |  |  |  |  |  |  | not inhibited | 73 | 53.57 ± 10.34 |

Source: paper PMC3175392, “Noninvasive In Vivo Quantification of Neutrophil Elastase Activity in Acute Experimental Mouse Lung Injury” (International Journal of Molecular Imaging, 2011)
